The term IC50 denotes the concentration that inhibits the measured activity by half.

Common to all, as to type: biochemical
What all share (settings): Caliper assay at 1 mM ATP

For one assay, the target named is JAK3 (Homo sapiens (Human), UniProt P52333). As to the kind of experiment: JAK Caliper Enzyme Assay at 1 mM ATP (JAK3).
The next assay deals with TYK2 (Homo sapiens (Human), UniProt P29597). As to the kind of experiment: JAK Caliper Enzyme Assay at 1 mM ATP (TYK2).
In another assay the target is JAK1 (Homo sapiens (Human), UniProt P23458). Nature of the assay: JAK Caliper Enzyme Assay at 1 mM ATP (JAK1).
Another assay concerns the target JAK2 (Homo sapiens (Human), UniProt O60674). Nature of the assay: JAK Caliper Enzyme Assay at 1 mM ATP (JAK2).

JAK2, sequence (O60674 whole entry, species assumed): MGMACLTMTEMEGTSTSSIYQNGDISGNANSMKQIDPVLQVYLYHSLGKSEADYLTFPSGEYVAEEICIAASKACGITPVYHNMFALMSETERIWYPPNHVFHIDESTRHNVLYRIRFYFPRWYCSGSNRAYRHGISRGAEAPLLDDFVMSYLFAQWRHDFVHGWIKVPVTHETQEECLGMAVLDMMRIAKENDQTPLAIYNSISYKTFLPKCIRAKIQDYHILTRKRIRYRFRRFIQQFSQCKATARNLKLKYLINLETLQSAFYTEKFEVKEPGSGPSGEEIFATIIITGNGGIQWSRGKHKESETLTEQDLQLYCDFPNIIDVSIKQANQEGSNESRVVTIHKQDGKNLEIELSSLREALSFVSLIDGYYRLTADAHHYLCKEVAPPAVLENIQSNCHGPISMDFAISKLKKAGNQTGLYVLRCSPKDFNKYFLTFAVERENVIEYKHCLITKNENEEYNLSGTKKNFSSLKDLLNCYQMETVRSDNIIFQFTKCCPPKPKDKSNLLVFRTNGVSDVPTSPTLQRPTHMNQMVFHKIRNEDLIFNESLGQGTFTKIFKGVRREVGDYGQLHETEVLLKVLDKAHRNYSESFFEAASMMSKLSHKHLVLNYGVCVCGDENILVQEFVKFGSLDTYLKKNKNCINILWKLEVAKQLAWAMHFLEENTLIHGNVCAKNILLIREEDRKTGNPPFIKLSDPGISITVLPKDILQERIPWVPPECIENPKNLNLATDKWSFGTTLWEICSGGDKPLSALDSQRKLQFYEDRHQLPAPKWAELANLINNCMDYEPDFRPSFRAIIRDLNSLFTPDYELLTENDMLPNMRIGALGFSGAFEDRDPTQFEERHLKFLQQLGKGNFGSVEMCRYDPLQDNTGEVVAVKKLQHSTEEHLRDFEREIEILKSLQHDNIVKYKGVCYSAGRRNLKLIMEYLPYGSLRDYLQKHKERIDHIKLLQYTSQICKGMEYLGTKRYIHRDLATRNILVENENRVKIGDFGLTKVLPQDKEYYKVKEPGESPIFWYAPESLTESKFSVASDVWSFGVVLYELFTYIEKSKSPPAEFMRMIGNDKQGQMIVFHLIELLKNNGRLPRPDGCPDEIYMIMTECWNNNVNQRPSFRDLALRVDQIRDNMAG
JAK3, sequence (P52333 whole entry, species assumed): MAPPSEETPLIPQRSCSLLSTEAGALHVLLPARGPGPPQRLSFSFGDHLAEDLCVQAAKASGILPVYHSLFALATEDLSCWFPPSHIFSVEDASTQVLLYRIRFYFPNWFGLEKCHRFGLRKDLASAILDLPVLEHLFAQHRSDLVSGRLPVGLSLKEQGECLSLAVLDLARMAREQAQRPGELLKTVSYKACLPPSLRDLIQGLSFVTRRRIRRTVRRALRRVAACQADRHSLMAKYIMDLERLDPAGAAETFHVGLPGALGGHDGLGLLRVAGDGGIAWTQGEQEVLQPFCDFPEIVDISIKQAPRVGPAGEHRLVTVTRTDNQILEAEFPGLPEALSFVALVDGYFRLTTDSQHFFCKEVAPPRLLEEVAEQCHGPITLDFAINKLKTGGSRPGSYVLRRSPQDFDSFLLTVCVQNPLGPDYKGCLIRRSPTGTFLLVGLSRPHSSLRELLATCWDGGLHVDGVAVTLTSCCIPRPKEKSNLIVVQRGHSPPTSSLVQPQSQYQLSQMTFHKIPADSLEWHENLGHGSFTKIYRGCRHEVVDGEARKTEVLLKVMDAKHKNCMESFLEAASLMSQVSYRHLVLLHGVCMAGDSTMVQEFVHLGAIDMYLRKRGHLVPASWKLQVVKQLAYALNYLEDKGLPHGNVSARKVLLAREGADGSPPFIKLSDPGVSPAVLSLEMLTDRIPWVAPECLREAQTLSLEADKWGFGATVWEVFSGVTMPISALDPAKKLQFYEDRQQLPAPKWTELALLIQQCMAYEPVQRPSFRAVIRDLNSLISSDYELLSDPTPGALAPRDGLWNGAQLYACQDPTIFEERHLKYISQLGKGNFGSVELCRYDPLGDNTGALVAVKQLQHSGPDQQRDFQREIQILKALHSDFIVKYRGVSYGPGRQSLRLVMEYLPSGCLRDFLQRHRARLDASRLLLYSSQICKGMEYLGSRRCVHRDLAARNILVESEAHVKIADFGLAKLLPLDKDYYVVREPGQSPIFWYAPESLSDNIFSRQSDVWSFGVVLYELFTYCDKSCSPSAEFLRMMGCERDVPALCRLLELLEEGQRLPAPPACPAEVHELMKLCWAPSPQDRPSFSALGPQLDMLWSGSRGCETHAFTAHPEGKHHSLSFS
TYK2, sequence (P29597 whole entry, species assumed): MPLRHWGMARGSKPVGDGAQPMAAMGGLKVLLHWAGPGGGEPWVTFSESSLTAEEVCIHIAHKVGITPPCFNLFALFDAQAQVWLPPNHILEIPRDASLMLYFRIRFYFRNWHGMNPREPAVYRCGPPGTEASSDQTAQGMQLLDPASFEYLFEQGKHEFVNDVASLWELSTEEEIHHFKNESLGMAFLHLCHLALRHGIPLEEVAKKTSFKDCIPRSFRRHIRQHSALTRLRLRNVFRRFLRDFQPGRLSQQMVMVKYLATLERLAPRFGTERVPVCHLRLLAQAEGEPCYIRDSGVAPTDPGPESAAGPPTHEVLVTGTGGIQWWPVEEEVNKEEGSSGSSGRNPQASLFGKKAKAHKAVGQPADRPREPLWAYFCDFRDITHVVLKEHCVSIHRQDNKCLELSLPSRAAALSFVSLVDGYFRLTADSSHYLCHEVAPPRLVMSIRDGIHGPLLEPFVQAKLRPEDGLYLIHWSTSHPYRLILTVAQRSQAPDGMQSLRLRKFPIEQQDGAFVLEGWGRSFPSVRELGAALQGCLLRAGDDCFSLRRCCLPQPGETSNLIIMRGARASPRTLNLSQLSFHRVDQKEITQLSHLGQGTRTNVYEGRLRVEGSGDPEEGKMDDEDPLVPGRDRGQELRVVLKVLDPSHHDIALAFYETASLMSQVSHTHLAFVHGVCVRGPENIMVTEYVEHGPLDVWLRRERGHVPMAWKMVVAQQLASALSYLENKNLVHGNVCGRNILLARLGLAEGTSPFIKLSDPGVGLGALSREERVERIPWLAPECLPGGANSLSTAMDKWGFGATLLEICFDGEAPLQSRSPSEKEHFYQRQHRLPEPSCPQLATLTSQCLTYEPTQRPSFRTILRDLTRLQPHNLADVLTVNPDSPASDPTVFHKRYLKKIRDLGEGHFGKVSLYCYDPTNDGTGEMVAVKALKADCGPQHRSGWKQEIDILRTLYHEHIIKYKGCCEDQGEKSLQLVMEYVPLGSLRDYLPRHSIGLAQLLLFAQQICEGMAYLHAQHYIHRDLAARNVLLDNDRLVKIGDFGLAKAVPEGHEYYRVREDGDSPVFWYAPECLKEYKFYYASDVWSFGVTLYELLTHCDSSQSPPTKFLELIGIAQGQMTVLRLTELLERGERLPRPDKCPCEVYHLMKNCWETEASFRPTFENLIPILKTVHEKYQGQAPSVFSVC
JAK1, sequence (P23458 whole entry, species assumed): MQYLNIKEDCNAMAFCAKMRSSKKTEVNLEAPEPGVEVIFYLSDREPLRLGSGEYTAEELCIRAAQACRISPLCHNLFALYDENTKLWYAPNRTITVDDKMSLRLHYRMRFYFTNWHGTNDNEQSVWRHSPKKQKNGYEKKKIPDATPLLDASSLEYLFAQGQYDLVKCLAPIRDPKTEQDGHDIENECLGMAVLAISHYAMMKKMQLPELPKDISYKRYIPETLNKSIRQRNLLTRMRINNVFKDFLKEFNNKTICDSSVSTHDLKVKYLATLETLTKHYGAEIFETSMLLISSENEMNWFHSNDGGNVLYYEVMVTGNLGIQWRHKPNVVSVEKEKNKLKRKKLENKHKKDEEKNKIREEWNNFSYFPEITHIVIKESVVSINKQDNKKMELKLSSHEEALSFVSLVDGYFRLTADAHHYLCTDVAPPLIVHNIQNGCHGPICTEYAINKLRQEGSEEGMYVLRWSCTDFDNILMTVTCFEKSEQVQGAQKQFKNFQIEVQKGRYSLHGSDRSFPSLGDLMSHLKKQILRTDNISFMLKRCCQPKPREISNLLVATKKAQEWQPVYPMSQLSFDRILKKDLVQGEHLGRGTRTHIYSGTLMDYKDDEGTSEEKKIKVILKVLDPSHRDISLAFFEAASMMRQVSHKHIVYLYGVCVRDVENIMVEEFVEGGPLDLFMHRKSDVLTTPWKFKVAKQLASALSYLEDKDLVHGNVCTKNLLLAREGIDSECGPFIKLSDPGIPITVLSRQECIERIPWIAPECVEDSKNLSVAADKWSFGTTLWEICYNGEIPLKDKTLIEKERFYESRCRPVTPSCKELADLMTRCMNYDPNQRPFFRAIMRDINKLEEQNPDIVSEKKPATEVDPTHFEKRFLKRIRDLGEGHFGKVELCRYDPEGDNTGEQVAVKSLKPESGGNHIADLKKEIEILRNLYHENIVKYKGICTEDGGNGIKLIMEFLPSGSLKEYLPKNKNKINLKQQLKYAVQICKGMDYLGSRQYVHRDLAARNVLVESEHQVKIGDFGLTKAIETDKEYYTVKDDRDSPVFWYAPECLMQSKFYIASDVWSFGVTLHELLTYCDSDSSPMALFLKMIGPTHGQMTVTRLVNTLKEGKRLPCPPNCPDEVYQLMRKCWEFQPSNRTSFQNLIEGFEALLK

`CCN(c1ncc(C)cc1CNc1nc(-c2cc(F)c(O)cc2CC(F)(F)F)cc2[nH]nc(C(N)=O)c12)S(C)(=O)=O` [Example 87, 4-[({2-[ethyl(methylsulfonyl)amino]-5-methylpyridin-3-yl}methyl)amino]-6-[5-fluoro-4-hydroxy-2-(2,2,2-trifluoroethyl)phenyl]-1H-pyrazolo[4,3-c]pyridine-3-carboxamide]: the IC50 came out at 133 nM against JAK3, 2490 nM at TYK2, 30.6 nM against JAK1 and 87.8 nM on JAK2.

`CN(c1ccc(Cl)cc1CNc1nc(-c2cc(F)c(O)cc2CC(F)(F)F)cc2[nH]nc(C(N)=O)c12)S(C)(=O)=O` [Example 89, 4-({5-chloro-2-[methyl(methylsulfonyl)amino]benzyl}amino)-6-[5-fluoro-4-hydroxy-2-(2,2,2-trifluoroethyl)phenyl]-1H-pyrazolo[4,3-c]pyridine-3-carboxamide]: the concentration for half-maximal inhibition (IC50) at JAK3 came to 212 nM; against TYK2 it was 917 nM; on JAK1, 14.6 nM; against JAK2, 57.1 nM.

With `CCN(c1ccccc1CNc1nc(-c2cc(F)c(O)cc2CC(F)(F)F)cc2[nH]nc(C(N)=O)c12)S(C)(=O)=O` [Example 90, 4-({2-[ethyl(methylsulfonyl)amino]benzyl}amino)-6-[5-fluoro-4-hydroxy-2-(2,2,2-trifluoroethyl)-phenyl]-1H-pyrazolo[4,3-c]pyridine-3-carboxamide], the IC50 came out at 77.1 nM against JAK3, 23.2 nM against TYK2, 2.7 nM at JAK1 and 18.1 nM against JAK2.

As for `CCN(c1ccc(C)cc1CNc1nc(-c2cc(F)c(O)cc2CC(F)(F)F)cc2[nH]nc(C(N)=O)c12)S(C)(=O)=O` [Example 91, 4-({2-[ethyl(methylsulfonyl)amino]-5-methylbenzyl}amino)-6-[5-fluoro-4-hydroxy-2-(2,2,2-trifluoroethyl)phenyl]-1H-pyrazolo[4,3-c]pyridine-3-carboxamide], the IC50 against JAK3 amounted to 462 nM; at TYK2, 865 nM; on JAK1, 28.7 nM; against JAK2, 128 nM.

As to `CN(c1ccc(O)cc1CNc1nc(-c2cc(F)c(O)cc2CC(F)(F)F)cc2[nH]nc(C(N)=O)c12)S(C)(=O)=O` [Example 92, 6-[5-Fluoro-4-hydroxy-2-(2,2,2-trifluoroethyl)phenyl]-4-({5-hydroxy-2-[methyl(methylsulfonyl)amino]benzyl}amino)-1H-pyrazolo[4,3-c]pyridine-3-carboxamide], the IC50 against JAK3 is 45.7 nM; at TYK2 it was 14.5 nM; against JAK1, 2.1 nM; on JAK2 it was 13.5 nM.

As for `CCc1cc(O)c(F)cc1-c1nc(NCc2ccccc2N(C)S(C)(=O)=O)c2c(C(=O)NC)n[nH]c2n1` [Example 93, 6-(2-Ethyl-5-fluoro-4-hydroxyphenyl)-N-methyl-4-((2-(N-methylmethylsulfonamido)benzyl)amino)-1H-pyrazolo[3,4-d]pyrimidine-3-carboxamide], the IC50 against JAK3 was 27.4 nM; against TYK2 it was 13.9 nM; on JAK1 it was 2 nM; against JAK2, 8.4 nM.

Turning to `CCc1cc(O)c(F)cc1-c1nc(NCc2ccccc2N(C)S(=O)(=O)c2ccccc2)c2c(C(N)=O)n[nH]c2n1` [Example 95, 6-(2-Ethyl-5-fluoro-4-hydroxyphenyl)-4-((2-(N-methylphenylsulfonamido)benzyl)amino)-1H-pyrazolo[3,4-d]pyrimidine-3-carboxamide], the IC50 against JAK3 was found to be 82.4 nM; against TYK2, 89.3 nM; on JAK1 it was 6.7 nM; on JAK2, 27 nM.

For the molecule `CCN(c1ccccc1CNc1nc(-c2cc(F)c(O)cc2CC(F)(F)F)nc2[nH]nc(C(=O)NC)c12)S(C)(=O)=O` [Example 103, 4-((2-(N-ethylmethylsulfonamido)-benzyl)amino)-6-(5-fluoro-4-hydroxy-2-(2,2,2-trifluoroethyl)phenyl)-N-methyl-1H-pyrazolo[3,4-d]pyrimidine-3-carboxamide], the IC50 against JAK3 came out at 92.6 nM; against TYK2, 349 nM; on JAK1, 5 nM; at JAK2, 31 nM.

(Values after patent US9518052B2, “Pyrazolopyridines and pyrazolopyrimidines” (Pfizer Inc., priority 2014, dated 2016).)
